# In US20230045112A1, “DISULFIRAM AND OTHER REDOX-RELATED COMPOSITIONS FOR BRAIN TUMORS” (Texas Tech University System, priority 2014, published 2023):
# What was measured:
# [1] = system: GBM cell lines; assay: Potentiation of TMZ in DMG-treated cells; type: cell-based
# Source text: (§1) Synthesis of 2,4-Dimethylene glutaric acid (DMG), an α-ketoglutaric acid (α-KG) mimic for induction of epigenetic modifications: D-2 hydroxyglutarate (D-2HG) effectively replaces the normal metabolite, α-KG in 70% of low-grade pediatric gliomas with IDH mutations. α-KG is a substrate for TET1, TET2 DNA demethylases, and histone demethylases that maintain normal epigenetic homeostasis. D2-HG directly contributes to the CpG-island methylator phenotype (G-CIMP) and MGMT promoter methylation by competing with α-KG and inhibiting the demethylases. As an innovative strategy of understanding the glioma pathology and turning the tide against it, the inventors prepared DMG, a powerful α-KG derivative to replace the natural metabolite in epigenetic demethylase reactions; induction of such therapeutic methylation in non-IDH mutant GBMs was postulated to regress the tumors. […] DMG efficacy in xenografts and MGMT methylation therein are being tested.
# [2] = system: TET1, MGMT; assay: Effect of DMG on TET1 and MGMT activities; type: cell-based; conditions: GBM cell lines
# Source text: as §1
# [3] = target: T1, NQO1 (Homo sapiens, UniProt P15559); assay: NQO1 activity inhibition; type: biochemical
# T1 sequence (P15559 whole entry): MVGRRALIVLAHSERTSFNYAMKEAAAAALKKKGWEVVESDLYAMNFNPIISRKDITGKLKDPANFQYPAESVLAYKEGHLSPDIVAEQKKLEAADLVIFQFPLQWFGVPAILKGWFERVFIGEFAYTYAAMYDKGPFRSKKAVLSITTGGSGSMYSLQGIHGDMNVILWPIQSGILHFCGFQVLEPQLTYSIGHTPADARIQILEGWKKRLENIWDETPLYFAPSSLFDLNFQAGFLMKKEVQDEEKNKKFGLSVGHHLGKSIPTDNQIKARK
# Source text: (§2) A tumor-targeted NIR small-molecule dye called NQ-THR, was made and specifically accumulated in cancer cells for tumor NIR imaging and simultaneously trigger tumoricidal oxidative stress by acting as an NQO1-bioactivatable substrate. This […] fluorophore provides sufficient specificity and imaging guidance to promote tumor-specific cell death, which can be used for the cancer treatment as well. NQ-IND, the precursor of NQ-THR is an NQO1 activated prodrug itself, which undergoes redox-cycling to produce ROS in brain tumor cells. The functional groups on NQ-IND are amenable to designing NQO1-activated imaging and therapeutic compounds. ES936 (FIG. 20A) is a highly specific, potent, mechanism-based NQO1 inhibitor (55). Inspired by the structure of ES936, the inventors prepared a compound NQ-IND (FIG. 20B) by removing the inhibitory nitroaryl group. NQ-IND was tested for its activity against NQO1 inhibition and cell viability. […]. On the other hand, NQ-IND attached with the NIR fluorescent dyes can be used to generate a theranostic fluorescent probe NQ-THR with both imaging and therapeutic capabilities.
# [4] = system: cancer cell lines; assay: Cell viability, cancer cell lines (NQ-IND); type: cell-based
# Source text: as §2
# [5] = system: normal cells; assay: Cell viability, normal cell lines (NQ-IND); type: cell-based
# Source text: as §2
# [6] = system: ROS; assay: Intracellular ROS by NQ-IND (DCF-DA fluorescence); type: cell-based
# Source text: as §2
# [7] = system: UW228 cells; assay: Cell cycle analysis (flow cytometry) and apoptosis markers; type: cell-based, human; conditions: 100 μM BCNU alone, 24 hours
# Experimental: This was followed by 100 μM BCNU. […] After the treatments, cells were allowed to grow for 24 and 48 hours. At each of these time points cells were harvested and fixed in 70% ethanol. The cells were then washed with PBS and re-suspended in the presence of RNase (1 μg/ml) and propidium iodide (PI, 50 μg/ml) for 30 minutes. Cell cycle histograms were generated using a BD Accuri C6 flow cytometer.
# [8] = target: T2, Cys145 of MGMT (Homo sapiens, UniProt P16455); assay: BG-PEG-biotin probe binding to MGMT; conditions: UW228 cell extracts, 20 minutes
# T2 construct: hexa-histidine; made in house; host or cells: E. coli
# T2 sequence (P16455 1-207): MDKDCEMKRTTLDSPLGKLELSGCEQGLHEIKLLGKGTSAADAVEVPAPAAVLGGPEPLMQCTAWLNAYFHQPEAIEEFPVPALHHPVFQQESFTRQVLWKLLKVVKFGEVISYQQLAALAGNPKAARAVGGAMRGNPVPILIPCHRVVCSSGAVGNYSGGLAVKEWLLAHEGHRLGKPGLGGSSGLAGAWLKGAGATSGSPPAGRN
# Experimental: Drug treatments and exposure times are shown in labels. […] Cells were trypsinized at times shown. Levels of MGMT activity and protein were determined in cell extracts. […] BG-PEG-biotin (5 μM) was then added and incubations continued for 15 minutes. The samples were electrophoresed, blotted and probed with Streptavidin-HRP to detect the protein-bound biotin (upper panel). […] Streptavidin-HRP was used to probe the resulting blot (upper panel).
# MGMT protein and activity levels were analyzed during the depletion and repletion (FIG. 3B). […] MGMT protein levels as determined by western analyses during the depletion/repletion cycle were consistent with and fully reflected the DNA repair activity profiles (FIG. 3B, left panel).
# [9] = Pharmacokinetic analysis of GNQ after IV injections, BBB permeability; type: in vivo; conditions: mouse, brain, normal mice, read-out: accumulation in the brain, % of plasma levels
# Experimental: (§3) (FIG. 17A). The generation of ROS by GNQ was assessed by using fluorescent probes DCFDA and DHE (FIG. 17C). GNQ acts as NQO1 substrate in vitro. (FIG. 17B) Reduction pathways and subsequent reactions of GNQ. (FIG. 17C) Intracellular ROS levels were measured using DCFDA and DHE. (FIG. 17D) Anti-oxidants reversed the GNQ induced apoptosis. Antitumor efficacy of GNQ against intracranial DAOY medulloblastoma: The BBB permeability of GNQ was examined by pharmacokinetic analysis after IV injections in normal mice. […] Intracranial DAOY tumors were set up in nude mice and the tumor growth was assessed by quantitative bioluminescence. […] FIG. 18A, 18B show complete suppression of intracranial DAOY medulloblastoma growth by GNQ. GNQ was given IP at 25 mg/kg/d, 5 d/wk for about 4 weeks. […] (FIG. 18D) Ex-vivo bioluminescence from the isolated brains (FIG. 18E) Accumulation of GNQ in the brain when compared to plasma. (FIG. 18F) H&E staining of mouse brain sections showing the elimination of […] by GNQ. (FIG. 18G) Mean tumor volume radiance in the GNQ-treated group was compared with that in the control. Different substitutions (halogens, aryl, alkyl, and alkoxy groups) can be made to GNQ to append alkyl side chains to impart hydrophobicity to prepare BBB penetrating analogs.
# [10] = target: T3, MGMT (Homo sapiens, UniProt P16455); assay: MGMT inhibition by GNQ in DAOY cells; type: cell-based; set-up: endogenous in cells; host or cells: DAOY
# T3 sequence (P16455 1-207): T2 sequence (P16455 1-207)
# Source text: (§4) To further validate the MGMT deficiency, tumor cells exposed to GNQ can be treated with BCNU and the interstrand DNA crosslinking induced by BCNU, which can be quantitated by ethidium bromide fluorescence assay. Thus, it is possible to take advantage of these altered DNA repair pathways to combine GNQ with TMZ and PARP inhibitors and perform antitumor efficacy studies in orthotopic xenografts of pediatric brain cancers.
# (§5) FIG. 21A to 21D show the inhibition of MGMT activity (FIG. 21A) and its degradation (FIG. 21B) induced by GNQ in DAOY cells. […] (FIG. 21D) GNQ potentiates the cytotoxicity of TMZ.
# [11] = system: DAOY cells; assay: Potentiation of TMZ cytotoxicity by GNQ; type: cell-based
# Source text: as §4, §5
# [12] = target: T1, NQO1; assay: NQO1 substrate assay (NADH utilization); type: biochemical
# Experimental: as §3
# [13] = system: intracranial DAOY medulloblastoma; assay: Intracranial DAOY medulloblastoma in nude mice treated with GNQ, bioluminescence; type: in vivo; conditions: IP 25 mg/kg/d, 5 d/wk for about 4 weeks
# Experimental: Intracranial glioblastoma xenograft development in nude mice: GBM cells stably expressing luciferase and GFP are suspended at 2×10^5 cells/5 μl sterile PBS injected into mouse brains. For developing […], mice are anesthetized and placed on a stereotactic apparatus. For developing breast cancer brain metastases xenografts, brain-seeking breast cancer cells are injected into the left ventricle of the heart of each mouse under anesthesia. Three weeks later the mice are imaged for intracranial Firefly luciferase activity. Mice with intracranial bioluminescence are randomly divided into different groups for drug treatments. Imaging is performed 10 minutes after i.p. injection of D-luciferin (2 mg per animal) with mice lying in the prone position. Besides the bioluminescence studies, the survival of the human glioblastoma cell grafted mice after drug administrations are closely followed to generate the Kaplan-Meir curves.
# (FIG. 17A). The generation of ROS by GNQ was assessed by using fluorescent probes DCFDA and DHE (FIG. 17C). GNQ acts as NQO1 substrate in vitro. (FIG. 17B) Reduction pathways and subsequent reactions of GNQ. (FIG. 17C) Intracellular ROS levels were measured using DCFDA and DHE. (FIG. 17D) Anti-oxidants reversed the GNQ induced apoptosis. […] Intracranial DAOY tumors were set up in nude mice and the tumor growth was assessed by quantitative bioluminescence. […]
# [14] = system: brain tumor cells; assay: Cytotoxicity of GNQ against brain tumor cells, NQO1 dependence; type: cell-based; conditions: coincubation with ES936 or dicumarol
# Source text: (§6) (FIG. 15B) Cytotoxicity of GNQ against normal cells astrocytes and primary neurons. (FIG. 15C) Cytotoxicity against NQO1 null cell line MDA-MB-231. (FIG. 15D) Cytotoxicity values against normal and cancer cells in micromoles. […] Normal astrocytes and NQO1-null cells were not sensitive to GNQ.
# [15] = system: Reactive oxygen species (ROS); assay: Intracellular ROS by GNQ (DCFDA and DHE); type: cell-based
# Experimental: as §3
# [16] = system: Normal astrocytes and NQO1-null cells; assay: Cytotoxicity of GNQ against normal and NQO1-null cells; type: cell-based
# Source text: as §6
# [17] = target: T3, MGMT; assay: Effect of proteasome inhibitor PS-341 on degradation of DSF-modified MGMT in UW228 cells; type: cell-based; set-up: endogenous in cells; host or cells: UW228, T98G
# Source text: The samples were immunoblotted and probed with MGMT antibodies (right panel). The densitometric quantitation of protein bands on the western blots is shown as a line graph on the left. […] Cell lysates were western blotted for the MGMT protein. […] Kinetics of DNA interstrand crosslinks formed in UW228 cells after treatment with […] BCNU or […] melphalan is shown. […] They were then exposed to BCNU or melphalan. At times specified, the cells were harvested, DNA isolated and the extent of interstrand crosslinking of DNA was determined using the ethidium bromide fluorescence assay. Values are mean+S.D. The results were significant at P<0.05. […] The cells were trypsinized at times indicated and analyzed by flow cytometry.
# Since the MGMT inactivated by BG is degraded through ub-proteolysis, it was of interest to investigate the mode of elimination of DSF-modified MGMT protein. Therefore, first, we compared the in vitro degradation of DSF-treated and untreated rMGMT protein in rabbit reticulocyte lysates (RL), which are known to promote the proteasomal degradation. The control and DSF-modified MGMT proteins were incubated with RL in the presence of Mg++, ATP and ubiquitin at 37° C. The reaction mixtures were blotted and probed with MGMT antibodies. […] To show the involvement of the ub-proteolysis in cells a clinically used proteasome inhibitor. […]
# [18] = system: NQO1-deficient MDAMB-231 tumors; assay: NIR imaging of NQO1-deficient tumors in live mice; type: in vivo, nude mice; conditions: one mg/kg intravenously
# Source text: (§7) Engineering of NQO1 turn-on near-infrared (NIR) fluorophores and theranostic drugs thereof for pediatric brain cancer therapy and multimodality imaging. There is an imperative need for the development of cancer-specific imaging and therapeutic multifunctional or theranostic agents that can allow both imaging and drug delivery. Imaging in the near-infrared (NIR) range of 650-900 nm has been widely used in clinical procedures, because of deep tissue penetration, low autofluorescence, and reduced photon scattering. The inventors developed enzyme-activatable, cell-permeable, non-toxic, and biocompatible ‘turn-on’ NIR fluorescent probes (NIR-ASM, NQ-DCP) that provide accurate detection and visualization of endogenous NQO1 activity both in vitro and an in vivo preclinical model of lung and brain cancers. These fluorophores remain non-fluorescent until cleavage by NQO1 catalysis. In this study, subcutaneous tumors of A549 lung cancer (NQO1-positive) and MDAMB-231 breast cancer (NQO1 negative) were developed in the same animal on opposite flanks.
# (§8) The animals were imaged in a IVIS imager at 500-640 nm.
# [19] = system: NQO1-proficient A549 tumors; assay: NIR imaging of NQO1-proficient tumors in live mice; type: in vivo, nude mice; conditions: one mg/kg intravenously
# Source text: as §7, §8
# [20] = system: MGMT inactivated cells and xenografts; assay: Antimetabolite cytotoxicity in MGMT inactivated cells and xenografts; type: cell-based
# Source text: MGMT performs stoichiometric catalysis to remove mutagenic alkyl groups and dies in the process. […] Inhibition of MGMT by siRNA or 06-benzylguanine led to an S-phase block, perturbed DNA synthesis, and re-replication of the genome.
compound,measurement,setting,value
"C=C(CC(=C)C(=O)O)C(=O)O [DMG, 2,4-Dimethylene glutaric acid]",potentiation of TMZ,[1],6-8 fold
same,"effect on TET1, MGMT activities",[2],"curtailed TET1, MGMT activities"
COC1=CC(=O)c2c(c(CO)cn2C)C1=O [NQ-IND],effect on NQO1 activity,[3],did not affect the activity of NQO1
same,cancer cell proliferation,[4],inhibit cancer cell proliferation selectively
same,effect on normal cells,[5],no effect on normal cells
same,ROS by DCF-DA fluorescence,[6],generate ROS
"O=NN(CCCl)C(=O)NCCCl [BCNU, 1,3-bis-2-chloroethylnitrosourea]","G2/M blockade, % of cells",[7],33 % of cells
"CCN1C(=O)C=CC1=O [NEM, N-ethylmaleimide]",BG-PEG-biotin labeling of MGMT in cell extracts after drug,[8],prevented the BG-labeling of the protein
COC1=CC(=O)c2c(c(COc3ccc([N+](=O)[O-])cc3)c(C)n2C)C1=O [ES936],effect on NQO1 activity,[3],completely inhibited the NQO1 activity
O=C1NC2(c3ccccc31)c1ccccc1C1C(=O)c3cccc(O)c3C(=O)C12 (centres unmarked) [GNQ],Kp,[9],≤ 0.11
same,MGMT inhibition,[10],remarkably inhibited
same,sensitization to TMZ,[11],sensitized to TMZ
same,NADH utilized throughout the assay,[12],greater than 1 equiv. of NADH
same,body weight as a surrogate marker for toxicity,[13],No changes in body weight
same,tumor bioluminescence,[13],complete loss of bioluminescence
same,effect of NQO1 inhibitors on GNQ cytotoxicity,[14],reversed by coincubation with NQO1 inhibitors ES936 or dicumarol
same,ROS generation,[15],generates Reactive oxygen species (ROS)
same,sensitivity to GNQ,[16],not sensitive
"CC(C)C[C@H](NC(=O)[C@H](Cc1ccccc1)NC(=O)c1cnccn1)B(O)O [PS341, bortezomib]",decrease of MGMT degradation,[17]; 10 μM PS341 co-incubation with 50 μM DSF for 6 hours,20%
same,reduction in the loss of MGMT protein,[17]; pretreated 6 hours with 10 μM PS341 followed by 50 μM DSF for 12 hours,> 50%
CC1=C(C)C(=O)C(C(C)(C)CC(=O)Nc2ccc(/C=C/C3=CC(=C(C#N)C#N)CC(C)(C)C3)cc2)=C(C)C1=O [NIR-ASM],fluorescent signal in tumors,[18],totally negative after 3 hours
same,time to fluorescent signal in tumors,[19],≤ 5 min
O=c1[nH]cc(F)c(=O)[nH]1 [5FU],increase in cytotoxicity in MGMT inactivated cells and xenografts,[20],10-15 fold
